Reference: patent US20260217701A1, “SELECTIVE BET INHIBITORS AND USES THEREOF” (Tay Therapeutics Limited, priority 2022, published 2026)
Marks after values point to notes of the source that are not given here.

Test system: experimental autoimmune encephalomyelitis
Assay: Experimental autoimmune encephalomyelitis (EAE) model: EAE scores, onset, incidence
Type: in vivo, C57BI/6 mice
Method: Experimental Method H: EAE in animals treated with a BET inhibitor and vehicle. Animals were assigned to the groups outlined in Table 38.
Compound A may be formulated as illustrated in Experimental Method A (see Table 2E.). A 40 mg/mL stock solution of Compound A in DMSO was prepared and aliquots stored at −20° C. On each day of preparation an e.g., 0.75 mL aliquot of thawed stock was diluted with an equal volume of DMSO. The remaining vehicle components were added to provide the highest dose and then diluted with vehicle to provide lower doses. A 30 mg/mL stock solution of FTY720 in ethanol was prepared and stored at −20° C. Daily, the stock solution was diluted with room temperature water to a final dosing concentration of 0.6 mg/mL. Formulated Compound A, FTY720 and vehicle were each at room temperature for dosing.
Female C57BI/6 mice (9 weeks old) were acclimated for seven days prior to study initiation. On Day-1, animals were assigned to groups in a balanced manner to achieve similar average weights across the different groups. Chronic EAE was induced in female C57BI/6 mice following immunization with an emulsion of MOG35-55/CFA on Day 0, followed by an injection of pertussis toxin two hours after the initial immunization. On Day 1, a second injection of pertussis toxin was administered 24 hours after the initial immunization. Mice were injected subcutaneously at two sites on the back with the MOG35-55/CFA emulsion (Hooke Kit™ MOG35-55/CFA Emulsion PTX). The first injection site was located approximately 1 cm caudal of the neckline (upper back), and the second injection site was approximately 2 cm cranial of the base of the tail (lower back). The injection volume was 0.1 mL for each injection. The pertussis toxin was administered at the described times through intraperitoneal injection at a concentration of 85 ng/dose for both injections.
Body weight was measured three times a week (Monday, Wednesday, and Friday) starting on Day-1. Animals were scored daily for EAE starting on Day 7. In-between scores were assigned when the clinical signs fell between two below defined scores.

[1] = all animals receiving Compound A

## Cn1cc(-c2ccccc2)c(-c2cn(C)c(=O)c3[nH]c(-c4cnn(C(F)(F)F)c4)cc23)cc1=O [Compound A, 6-methyl-4-(1-methyl-2-oxo-5-phenyl-1,2-dihydropyridin-4-yl)-2-(1-(trifluoromethyl)-1H-pyrazol-4-yl)-1,6-dihydro-7H-pyrrolo[2,3-c]pyridin-7-one]
1 mg/kg (lowest dose)
  EAE incidence rate: 100%
1 mg/kg, 3 mg/kg and 10 mg/kg
  Mean maximum EAE scores relative to vehicle: significantly reduced mean maximum scores
3 mg/kg
  EAE incidence rate: 91.7%
10 mg/kg
  EAE incidence rate: 83.3%
Compound A 1 mg/kg (Group 2)
  Incidence of EAE (%): 100%
  Mean Day of Onset (SEM): 14.5 (0.9) Day
  Mean End Score (SEM): 1.05 (0.35)*
  Mean Maximum Score (SEM): 2.18 (0.25)*
  Median Day of Onset: 13.0 days
Compound A 1 mg/kg (Group 2), Day 7
  Mean EAE score: 0.00
Compound A 1 mg/kg (Group 2), Day 8
  Mean EAE score: 0.00
Compound A 1 mg/kg (Group 2), Day 9
  Mean EAE score: 0.00
Compound A 1 mg/kg (Group 2), Day 10
  Mean EAE score: 0.00
Compound A 1 mg/kg (Group 2), Day 11
  Mean EAE score: 0.05
Compound A 1 mg/kg (Group 2), Day 12
  Mean EAE score: 0.18
Compound A 1 mg/kg (Group 2), Day 13
  Mean EAE score: 0.55
Compound A 1 mg/kg (Group 2), Day 14
  Mean EAE score: 0.95
Compound A 1 mg/kg (Group 2), Day 15
  Mean EAE score: 1.27
Compound A 1 mg/kg (Group 2), Day 16
  Mean EAE score: 1.45
Compound A 1 mg/kg (Group 2), Day 17
  Mean EAE score: 1.73
Compound A 1 mg/kg (Group 2), Day 18
  Mean EAE score: 1.68
Compound A 1 mg/kg (Group 2), Day 19
  Mean EAE score: 1.68
Compound A 1 mg/kg (Group 2), Day 20
  Mean EAE score: 1.55
Compound A 1 mg/kg (Group 2), Day 21
  Mean EAE score: 1.64
Compound A 1 mg/kg (Group 2), Day 22
  Mean EAE score: 1.32
Compound A 1 mg/kg (Group 2), Day 23
  Mean EAE score: 1.23
Compound A 1 mg/kg (Group 2), Day 24
  Mean EAE score: 1.23
Compound A 1 mg/kg (Group 2), Day 25
  Mean EAE score: 1.09
Compound A 1 mg/kg (Group 2), Day 26
  Mean EAE score: 1.14
Compound A 1 mg/kg (Group 2), Day 27
  Mean EAE score: 1.09
Compound A 1 mg/kg (Group 2), Day 28
  Mean EAE score: 1.05
Compound A 3 mg/kg (Group 3)
  Incidence of EAE (%): 91.7%
  Mean Day of Onset (SEM): 14.2 (0.4) Day
  Mean End Score (SEM): 0.73 (0.26)**
  Mean Maximum Score (SEM): 1.77 (0.23)***
  Median Day of Onset: 14.0 days
Compound A 3 mg/kg (Group 3), Day 7
  Mean EAE score: 0.00
Compound A 3 mg/kg (Group 3), Day 8
  Mean EAE score: 0.00
Compound A 3 mg/kg (Group 3), Day 9
  Mean EAE score: 0.00
Compound A 3 mg/kg (Group 3), Day 10
  Mean EAE score: 0.00
Compound A 3 mg/kg (Group 3), Day 11
  Mean EAE score: 0.00
Compound A 3 mg/kg (Group 3), Day 12
  Mean EAE score: 0.00
Compound A 3 mg/kg (Group 3), Day 13
  Mean EAE score: 0.29
Compound A 3 mg/kg (Group 3), Day 14
  Mean EAE score: 0.63
Compound A 3 mg/kg (Group 3), Day 15
  Mean EAE score: 0.88
Compound A 3 mg/kg (Group 3), Day 16
  Mean EAE score: 1.29
Compound A 3 mg/kg (Group 3), Day 17
  Mean EAE score: 1.67
Compound A 3 mg/kg (Group 3), Day 18
  Mean EAE score: 1.54
Compound A 3 mg/kg (Group 3), Day 19
  Mean EAE score: 1.18
Compound A 3 mg/kg (Group 3), Day 20
  Mean EAE score: 1.23
Compound A 3 mg/kg (Group 3), Day 21
  Mean EAE score: 1.18
Compound A 3 mg/kg (Group 3), Day 22
  Mean EAE score: 0.95
Compound A 3 mg/kg (Group 3), Day 23
  Mean EAE score: 0.91
Compound A 3 mg/kg (Group 3), Day 24
  Mean EAE score: 0.91
Compound A 3 mg/kg (Group 3), Day 25
  Mean EAE score: 0.95
Compound A 3 mg/kg (Group 3), Day 26
  Mean EAE score: 0.95
Compound A 3 mg/kg (Group 3), Day 27
  Mean EAE score: 0.95
Compound A 3 mg/kg (Group 3), Day 28
  Mean EAE score: 0.73
Compound A 10 mg/kg (Group 4)
  Incidence of EAE (%): 83.3%
  Mean Day of Onset (SEM): 13.4 (0.6) Day
  Mean End Score (SEM): 0.29 (0.13)***
  Mean Maximum Score (SEM): 1.67 (0.28)***
  Median Day of Onset: 13.0 days
Compound A 10 mg/kg (Group 4), Day 7
  Mean EAE score: 0.00
Compound A 10 mg/kg (Group 4), Day 8
  Mean EAE score: 0.00
Compound A 10 mg/kg (Group 4), Day 9
  Mean EAE score: 0.00
Compound A 10 mg/kg (Group 4), Day 10
  Mean EAE score: 0.00
Compound A 10 mg/kg (Group 4), Day 11
  Mean EAE score: 0.04
Compound A 10 mg/kg (Group 4), Day 12
  Mean EAE score: 0.21
Compound A 10 mg/kg (Group 4), Day 13
  Mean EAE score: 0.83
Compound A 10 mg/kg (Group 4), Day 14
  Mean EAE score: 1.04
Compound A 10 mg/kg (Group 4), Day 15
  Mean EAE score: 1.33
Compound A 10 mg/kg (Group 4), Day 16
  Mean EAE score: 1.46
Compound A 10 mg/kg (Group 4), Day 17
  Mean EAE score: 1.46
Compound A 10 mg/kg (Group 4), Day 18
  Mean EAE score: 1.54
Compound A 10 mg/kg (Group 4), Day 19
  Mean EAE score: 1.21
Compound A 10 mg/kg (Group 4), Day 20
  Mean EAE score: 1.13
Compound A 10 mg/kg (Group 4), Day 21
  Mean EAE score: 1.17
Compound A 10 mg/kg (Group 4), Day 22
  Mean EAE score: 0.75
Compound A 10 mg/kg (Group 4), Day 23
  Mean EAE score: 0.71
Compound A 10 mg/kg (Group 4), Day 24
  Mean EAE score: 0.63
Compound A 10 mg/kg (Group 4), Day 25
  Mean EAE score: 0.46
Compound A 10 mg/kg (Group 4), Day 26
  Mean EAE score: 0.50
Compound A 10 mg/kg (Group 4), Day 27
  Mean EAE score: 0.46
Compound A 10 mg/kg (Group 4), Day 28
  Mean EAE score: 0.29
Day 28, 10 mg/kg
  Mean EAE score compared to positive control FTY720: comparable mean EAE score
[1]
  Day on which EAE scores peaked: ~17 days
  Mean end EAE scores relative to vehicle: significantly reduced mean end scores
All doses
  Mean day of onset of EAE compared with vehicle: similar
